# According to patent US20090062251A1, “Novel Compounds 002” (ASTRAZENECA AB, priority 2007, published 2009):
# Key:
# [1] = biological target: T1, Human CB1 receptor (hCB1) (Homo sapiens, UniProt P21554); assay: hCB1 GTPγS binding; type: biochemical; conditions: for EC50: hCB1 membranes, GTPγ35S, 10-point dose-response; for Emax: maximal stimulated binding determined with 10 μM Win 55,212-2
# T1 construct: purchased Receptor Biology
# Summary of the method: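 Human CB1 membranes in 50 mM Hepes, 100 mM NaCl, 1 mM EDTA, 5 mM MgCl2, 0.1% BSA, pH 7.4 were preincubated 5 min with GDP (30 μM final). Basal and maximal binding were defined without or with 10 μM Win 55,212-2; incubation 60 min RT; filter-bound radioactivity counted. Antagonist reversal used fixed antagonist with agonist curve, or fixed agonist with antagonist curve.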
# [2] = biological target: T1, Human CB1 receptor (hCB1); assay: hCB1 receptor binding (3H-CP55,940 displacement); conditions: hCB1 membranes, Ki=IC50/(1+[rad]/Kd)
# Procedure: hCB1 and hCB2 Receptor Binding
# Human CB1 receptor from Receptor Biology (hCB1) or human CB2 receptor from BioSignal (hCB2) membranes are thawed at 37° C., passed 3 times through a 25-gauge blunt-end needle, diluted in the cannabinoid binding buffer (50 mM Tris, 2.5 mM EDTA, 5 mM MgCl2, and 0.5 mg/mL BSA fatty acid free, pH 7.4) and aliquots containing the appropriate amount of protein are distributed in 96-well plates. […] The total and non-specific binding are determined in the absence and presence of 0.2 μM of HU210 respectively. The plates are vortexed and incubated for 60 minutes at room temperature, filtered through Unifilters GF/B (presoaked in 0.1% polyethyleneimine) with the Tomtec or Packard harvester using 3 mL of wash buffer (50 mM Tris, 5 mM MgCl2, 0.5 mg BSA pH 7.0). The filters are dried for 1 hour at 55° C. The radioactivity (cpm) is counted in a TopCount (Packard) after adding 65 μl/well of MS-20 scintillation liquid.
# Based on the above assays, the dissociation constant (Ki) for a particular compound of the invention towards a particular receptor is determined using the following equation:
# [rad] is a standard or reference radioactive ligand concentration at that moment; and
# Kd is the dissociation constant of the radioactive ligand towards the particular receptor.
# T1 sequence (P21554 whole entry): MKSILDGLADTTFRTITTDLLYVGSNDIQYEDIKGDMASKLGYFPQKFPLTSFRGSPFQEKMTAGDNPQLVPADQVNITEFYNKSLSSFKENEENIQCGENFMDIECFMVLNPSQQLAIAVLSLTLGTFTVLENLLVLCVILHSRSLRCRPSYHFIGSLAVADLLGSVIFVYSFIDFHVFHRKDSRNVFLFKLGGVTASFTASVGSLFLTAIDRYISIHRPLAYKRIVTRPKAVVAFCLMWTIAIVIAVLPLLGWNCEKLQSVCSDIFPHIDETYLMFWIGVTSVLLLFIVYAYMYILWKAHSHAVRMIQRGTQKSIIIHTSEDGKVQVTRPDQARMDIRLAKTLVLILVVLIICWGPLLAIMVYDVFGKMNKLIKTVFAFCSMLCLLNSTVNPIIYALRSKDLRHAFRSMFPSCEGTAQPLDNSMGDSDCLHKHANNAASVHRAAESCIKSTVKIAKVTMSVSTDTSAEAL
SMILES,EC50 [1] [nM],Emax [1] [%],Ki [2] [nM]
"CC(C)S(=O)(=O)n1c2c(c3cc(C(=O)N(C)CC(=O)NC4CC4)ccc31)CC(C1CCCCC1)CC2 (centres unmarked) [6-cyclohexyl-N-(cyclopropylcarbamoylmethyl)-N-methyl-9-propan-2-ylsulfonyl-5,6,7,8-tetrahydrocarbazole-3-carboxamide]",43.9,110,21.2
"CCn1c2c(c3cc(C(=O)N(C)CCCC(=O)NC)ccc31)CC(C1CCOCC1)CC2 (centres unmarked) [9-ethyl-N-methyl-N-[3-(methylcarbamoyl)propyl]-6-(oxan-4-yl)-5,6,7,8-tetrahydrocarbazole-3-carboxamide]",146,121,59.2
"CCN(CC(=O)NCCCO)C(=O)c1ccc2c(c1)c1c(n2S(=O)(=O)CC)CCC(C2CCOCC2)C1 (centres unmarked) [N-ethyl-9-ethylsulfonyl-N-(3-hydroxypropylcarbamoylmethyl)-6-(oxan-4-yl)-5,6,7,8-tetrahydrocarbazole-3-carboxamide]",53.3,126,45.8
"CCNC(=O)[C@H]1CCN(C(=O)c2ccc3c(c2)c2c(n3C)CCC(C3CCOCC3)C2)C1 (stereo partly drawn) [(3S)—N-ethyl-1-[9-methyl-6-(oxan-4-yl)5,6,7,8-tetrahydrocarbazole-3-carbonyl]pyrrolidine-3-carboxamide]",103,122,69.9
"CCN(CC(=O)NC1CC1)C(=O)c1ccc2c(c1)c1c(n2CC2CC2)CCC(C2CCOCC2)C1 (centres unmarked) [N-(cyclopropylcarbamoylmethyl)-9-(cyclopropylmethyl)-N-ethyl-6-(oxan-4-yl)-5,6,7,8-tetrahydrocarbazole-3-carboxamide]",34.2,91,21.2
"CCN(CC(=O)NC[C@@H](C)O)C(=O)c1ccc2c(c1)c1c(n2C)CCC(C2CCOCC2)C1 (stereo partly drawn) [N-ethyl-N-[[(2R)-2-hydroxypropyl]carbamoylmethyl]-9-methyl-6-(oxan-4-yl)-5,6,7,8-tetrahydrocarbazole-3-carboxamide]",318,124,182
"CCN(CCCC(=O)NC1CC1)C(=O)c1ccc2c(c1)c1c(n2C)CCC(C2CCOCC2)C1 (centres unmarked) [N-[3-(cyclopropylcarbamoyl)propyl]-N-ethyl-9-methyl-6-(oxan-4-yl)-5,6,7,8-tetrahydrocarbazole-3-carboxamide]",4.9,116,2.8
"CCNC(=O)CN(CC)C(=O)c1ccc2c(c1)c1c(n2C2CCC2)CCC(C2CCOCC2)C1 (centres unmarked) [9-cyclobutyl-N-ethyl-N-(ethylcarbamoylmethyl)-6-(oxan-4-yl)-5,6,7,8-tetrahydrocarbazole-3-carboxamide]",233,82,113
"CN(CCCC(=O)NC1CC1)C(=O)c1ccc2c(c1)c1c(n2C)CCC(C2CCOCC2)C1 (centres unmarked) [N-[3-(cyclopropylcarbamoyl)propyl]-N,9-dimethyl-6-(oxan-4-yl)-5,6,7,8-tetrahydrocarbazole-3-carboxamide]",16.2,113,7.1
"Cn1c2c(c3cc(C(=O)N4CCC(C(=O)NC5CC5)CC4)ccc31)CC(C1CCOCC1)CC2 (centres unmarked) [N-cyclopropyl-1-[9-methyl-6-(oxan-4-yl)5,6,7,8-tetrahydrocarbazole-3-carbonyl]piperidine-4-carboxamide]",214,102,118
"CCn1c2c(c3cc(C(=O)N(C)CCCC(=O)NCCF)ccc31)CC(C1CCOCC1)CC2 (centres unmarked) [9-ethyl-N-[3-(2-fluoroethylcarbamoyl)propyl]-N-methyl-6-(oxan-4-yl)-5,6,7,8-tetrahydrocarbazole-3-carboxamide]",60.3,119,25.8
"CC1CCN(C(=O)c2ccc3c(c2)c2c(n3C)CCC(C3CCCCC3)C2)CC1 (centres unmarked) [(6-cyclohexyl-9-methyl-5,6,7,8-tetrahydrocarbazol-3-yl)-(4-methyl-1-piperidyl)methanone]",65.1,106,29.5
"CCS(=O)(=O)n1c2c(c3cc(C(=O)N4CCC(O)CC4)ccc31)CC(C1CCOCC1)CC2 (centres unmarked) [[9-ethylsulfonyl-6-(oxan-4-yl)-5,6,7,8-tetrahydrocarbazol-3-yl]-(4-hydroxy-1-piperidyl)methanone]",352,107,155
"CCNC(=O)C1CCN(C(=O)c2ccc3c(c2)c2c(n3C)CCC(C3CCOCC3)C2)C1 (centres unmarked) [N-ethyl-1-[9-methyl-6-(oxan-4-yl)5,6,7,8-tetrahydrocarbazole-3-carbonyl]pyrrolidine-3-carboxamide]",324,119,163
"CN(CC(=O)NCCF)C(=O)c1ccc2c(c1)c1c(n2C)CCC(C2CCOCC2)C1 (centres unmarked) [N-(2-fluoroethylcarbamoylmethyl)-N,9-dimethyl-6-(oxan-4-yl)-5,6,7,8-tetrahydrocarbazole-3-carboxamide]",721,110,291
"Cn1c2c(c3cc(C(=O)N4CCCC(NC(=O)C5CC5)C4)ccc31)CC(C1CCOCC1)CC2 (centres unmarked) [N-[1-[9-methyl-6-(oxan-4-yl)5,6,7,8-tetrahydrocarbazole-3-carbonyl]-3-piperidyl]cyclopropanecarboxamide]",40.6,115,26.7
"CCNC(=O)CN(CC)C(=O)c1ccc2c(c1)c1c(n2C)CCC(C2CCOCC2)C1 (centres unmarked) [N-ethyl-N-(ethylcarbamoylmethyl)-9-methyl-6-(oxan-4-yl)-5,6,7,8-tetrahydrocarbazole-3-carboxamide]",33.1,121,17.4
"CCNC(=O)CN(CC)C(=O)c1ccc2c(c1)c1c(n2CC2CC2)CCC(C2CCOCC2)C1 (centres unmarked) [9-(cyclopropylmethyl)-N-ethyl-N-(ethylcarbamoylmethyl)-6-(oxan-4-yl)-5,6,7,8-tetrahydrocarbazole-3-carboxamide]",157,90,65.2
"Cn1c2c(c3cc(C(=O)N4CC[C@H](C(=O)NCCF)C4)ccc31)CC(C1CCOCC1)CC2 (stereo partly drawn) [(3S)—N-(2-fluoroethyl)-1-[9-methyl-6-(oxan-4-yl)5,6,7,8-tetrahydrocarbazole-3-carbonyl]pyrrolidine-3-carboxamide]",–,119,30.5
"CCn1c2c(c3cc(C(=O)N(C)CCCC(=O)NCC(F)F)ccc31)CC(C1CCOCC1)CC2 (centres unmarked) [N-[3-(2,2-difluoroethylcarbamoyl)propyl]-9-ethyl-N-methyl-6-(oxan-4-yl)-5,6,7,8-tetrahydrocarbazole-3-carboxamide]",98.3,114,45.2
"Cn1c2c(c3cc(C(=O)N4CCC(C(=O)NCCF)C4)ccc31)CC(C1CCOCC1)CC2 (centres unmarked) [N-(2-fluoroethyl)-1-[9-methyl-6-(oxan-4-yl)5,6,7,8-tetrahydrocarbazole-3-carbonyl]pyrrolidine-3-carboxamide]",263,121,126
"CCN(CC(=O)NCCCF)C(=O)c1ccc2c(c1)c1c(n2S(=O)(=O)CC)CCC(C2CCOCC2)C1 (centres unmarked) [N-ethyl-9-ethylsulfonyl-N-(3-fluoropropylcarbamoylmethyl)-6-(oxan-4-yl)-5,6,7,8-tetrahydrocarbazole-3-carboxamide]",33,120,24
"CN(CCN(C)C(=O)c1ccc2c(c1)c1c(n2C)CCC(C2CCOCC2)C1)C(=O)NC1CC1 (centres unmarked) [N-[2-(cyclopropylcarbamoyl-methyl-amino)ethyl]-N,9-dimethyl-6-(oxan-4-yl)-5,6,7,8-tetrahydrocarbazole-3-carboxamide]",468,110,77.5
"CCNC(=O)[C@@H](C)N(C)C(=O)c1ccc2c(c1)c1c(n2C)CCC(C2CCOCC2)C1 (stereo partly drawn) [N-[(1R)-1-(ethylcarbamoyl)ethyl]-N,9-dimethyl-6-(oxan-4-yl)-5,6,7,8-tetrahydrocarbazole-3-carboxamide]",237,112,77.1
"Cn1c2c(c3cc(C(=O)N4CC[C@H](C(=O)NCC(F)F)C4)ccc31)CC(C1CCOCC1)CC2 (stereo partly drawn) [(3S)—N-(2,2-difluoroethyl)-1-[9-methyl-6-(oxan-4-yl)5,6,7,8-tetrahydrocarbazole-3-carbonyl]pyrrolidine-3-carboxamide]",82.6,125,49.5
"Cn1c2c(c3cc(C(=O)N4CCC(NC(=O)C5CC5)CC4)ccc31)CC(C1CCOCC1)CC2 (centres unmarked) [N-[1-[9-methyl-6-(oxan-4-yl)5,6,7,8-tetrahydrocarbazole-3-carbonyl]-4-piperidyl]cyclopropanecarboxamide]",> 30000,> 30,> 3480
